Source: ChEMBL document CHEMBL1201862, “PubChem BioAssay data set” (2004)
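48-hour exposure; five concentrations; linearly interpolated endpoints. At the GI50, growth is halved.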 The source made the active and inactive calls. Rule as the data show it: active = GI50 up to about 1.1 µM and inactive = higher.

Columns and labels:
Test in all cases: growth of human tumour cells (NCI), 48 h
786-0 = system: 786-0
A498 = system: A498
A549 = system: A549
ACHN = system: ACHN
CAKI-1 = system: CAKI-1
CCRF-CEM = system: CCRF-CEM
COLO 205 = system: COLO 205
DLD-1 = system: DLD-1
DMS-114 = system: DMS-114
DMS-273 = system: DMS-273
EKVX = system: EKVX
HCC 2998 = system: HCC 2998
HCT-15 = system: HCT-15
HL-60 = system: HL-60
HOP-18 = system: HOP-18
HOP-62 = system: HOP-62
HT-29 = system: HT-29
IGROV-1 = system: IGROV-1
K562 = system: K562
KM-20L2 = system: KM-20L2
KM12 = system: KM12
LOX IMVI = system: LOX IMVI
LXFL 529 = system: LXFL 529
M14 = system: M14
M19-MEL = system: M19-MEL
MOLT-4 = system: MOLT-4
Malme-3M = system: Malme-3M
NCI-H226 = system: NCI-H226
NCI-H23 = system: NCI-H23
NCI-H460 = system: NCI-H460
NCI-H522 = system: NCI-H522
OVCAR-3 = system: OVCAR-3
OVCAR-4 = system: OVCAR-4
OVCAR-5 = system: OVCAR-5
OVCAR-8 = system: OVCAR-8
RPMI-8226 = system: RPMI-8226
RXF 393 = system: RXF 393
RXF 631 = system: RXF 631
SF-268 = system: SF-268
SF-295 = system: SF-295
SF-539 = system: SF-539
SK-MEL-28 = system: SK-MEL-28
SK-MEL-2 = system: SK-MEL-2
SK-MEL-5 = system: SK-MEL-5
SK-OV-3 = system: SK-OV-3
SN12C = system: SN12C
SNB-19 = system: SNB-19
SNB-75 = system: SNB-75
SW-620 = system: SW-620
TK-10 = system: TK-10
U-251 = system: U-251
UACC-257 = system: UACC-257
UACC-62 = system: UACC-62
UO-31 = system: UO-31
XF498 = system: XF498
HCT-116 = system: HCT-116
HOP-92 = system: HOP-92
SNB-78 = system: SNB-78

In the case of `Nc1ccc(C2=Nc3ccccc3SC(c3ccccc3O)C2)cc1` (stereo not drawn), the GI50 (786-0) is reported as 28.8 µM (inactive), the GI50 (A498) is reported as 7.13 µM (inactive) and the GI50 (A549) is reported as 51.2 µM (inactive). For the same compound, the GI50 (ACHN) was 42.2 µM (inactive), the GI50 (CAKI-1) was 58.9 µM (inactive) and the GI50 (CCRF-CEM) was 12.4 µM (inactive). For the same compound, the GI50 (COLO 205) was 45.1 µM (inactive), the GI50 (DLD-1) was 34.1 µM (inactive) and the GI50 (DMS-114) was 15.7 µM (inactive). For the same compound, the GI50 (DMS-273) was 54.5 µM (inactive), the GI50 (EKVX) was 99.8 µM (inactive) and the GI50 (HCC 2998) was 32.1 µM (inactive). For the same compound, the GI50 (HCT-15) was 27.3 µM, the GI50 (HL-60) was 23.9 µM (inactive) and the GI50 (HOP-18) was > 100 µM (inactive). The GI50 (HOP-62) was 64 µM (inactive), the GI50 (HT-29) was 42.8 µM (inactive) and the GI50 (IGROV-1) was 46.6 µM (inactive). The GI50 (K562) was 15.3 µM (inactive), the GI50 (KM-20L2) was > 100 µM (inactive) and the GI50 (KM12) was 25.5 µM (inactive). For the same compound, the GI50 (LOX IMVI) was 30.7 µM (inactive), the GI50 (LXFL 529) was 22 µM (inactive) and the GI50 (M14) was 54.6 µM (inactive). The GI50 (M19-MEL) was 50 µM (inactive), the GI50 (MOLT-4) was 19.8 µM (inactive) and the GI50 (Malme-3M) was > 100 µM (inactive). For the same compound, the GI50 (NCI-H226) was 33.3 µM (inactive), the GI50 (NCI-H23) was 30.5 µM (inactive) and the GI50 (NCI-H460) was 30.6 µM (inactive). For the same compound, the GI50 (NCI-H522) was 21.3 µM (inactive), the GI50 (OVCAR-3) was 23.3 µM (inactive) and the GI50 (OVCAR-4) was 51.6 µM (inactive). For the same compound, the GI50 (OVCAR-5) was > 100 µM (inactive), the GI50 (OVCAR-8) was 42.1 µM (inactive) and the GI50 (RPMI-8226) was 17.5 µM (inactive). For the same compound, the GI50 (RXF 393) was 24.9 µM (inactive), the GI50 (RXF 631) was 68.2 µM (inactive) and the GI50 (SF-268) was 33.7 µM (inactive). For the same compound, the GI50 (SF-295) was 38 µM (inactive), the GI50 (SF-539) was 38.2 µM (inactive) and the GI50 (SK-MEL-28) was 65.8 µM (inactive). The GI50 (SK-MEL-2) was > 100 µM (inactive), the GI50 (SK-MEL-5) was 26.1 µM (inactive) and the GI50 (SK-OV-3) was > 100 µM (inactive). For the same compound, the GI50 (SN12C) was 45.5 µM (inactive), the GI50 (SNB-19) was 43.1 µM (inactive) and the GI50 (SNB-75) was 24.7 µM (inactive). For the same compound, the GI50 (SW-620) was 33.7 µM (inactive), the GI50 (TK-10) was > 100 µM (inactive) and the GI50 (U-251) was 45.5 µM (inactive). For the same compound, the GI50 (UACC-257) was 51.9 µM (inactive), the GI50 (UACC-62) was 38.8 µM (inactive) and the GI50 (UO-31) was 29.8 µM (inactive). The GI50 (XF498) was 16.3 µM (inactive).

For `O=C1c2cccc3cc([N+](=O)[O-])cc(c23)C(=O)N1CCCN1CCN(CCCN2C(=O)c3cccc4cc([N+](=O)[O-])cc(c34)C2=O)CC1`, the GI50 (786-0) was 0.0594 µM (active), the GI50 (A498) was 0.272 µM (active) and the GI50 (A549) was 0.0381 µM (active). The GI50 (ACHN) was < 0.01 µM (active), the GI50 (CAKI-1) was 0.0293 µM (active) and the GI50 (CCRF-CEM) was 0.0803 µM (active). The GI50 (COLO 205) was 0.108 µM (active), the GI50 (DLD-1) was 0.0453 µM (active) and the GI50 (EKVX) was 0.612 µM (active). The GI50 (HCC 2998) was 0.0625 µM (active), the GI50 (HCT-116) was < 0.01 µM (active) and the GI50 (HCT-15) was 0.0495 µM. The GI50 (HL-60) was 0.34 µM (active), the GI50 (HOP-18) was 1.77 µM (inactive) and the GI50 (HOP-62) was 2.88 µM (inactive). For the same compound, the GI50 (HOP-92) was 0.237 µM (active), the GI50 (HT-29) was < 0.01 µM (active) and the GI50 (IGROV-1) was 0.0628 µM (active). For the same compound, the GI50 (K562) was 0.0232 µM (active), the GI50 (KM-20L2) was 0.45 µM (active) and the GI50 (KM12) was 0.063 µM (active). For the same compound, the GI50 (LOX IMVI) was 0.0234 µM (active), the GI50 (LXFL 529) was 0.0349 µM (active) and the GI50 (M14) was 0.706 µM (active). For the same compound, the GI50 (M19-MEL) was 0.0931 µM (active), the GI50 (MOLT-4) was 0.027 µM (active) and the GI50 (Malme-3M) was 0.571 µM (active). For the same compound, the GI50 (NCI-H226) was 0.0702 µM (active), the GI50 (NCI-H23) was 0.859 µM (active) and the GI50 (NCI-H460) was 0.0142 µM (active). The GI50 (OVCAR-3) was 1.09 µM (active), the GI50 (OVCAR-4) was 0.0925 µM (active) and the GI50 (OVCAR-5) was 1.65 µM (inactive). For the same compound, the GI50 (OVCAR-8) was < 0.01 µM (active), the GI50 (RPMI-8226) was 0.0887 µM (active) and the GI50 (RXF 393) was 0.0933 µM (active). For the same compound, the GI50 (RXF 631) was 0.0344 µM (active), the GI50 (SF-295) was 0.0386 µM (active) and the GI50 (SF-539) was 0.313 µM (active). For the same compound, the GI50 (SK-MEL-2) was 0.23 µM (active), the GI50 (SK-MEL-5) was 0.0853 µM (active) and the GI50 (SK-OV-3) was 2.59 µM (inactive). For the same compound, the GI50 (SN12C) was 0.08 µM (active), the GI50 (SNB-19) was 0.122 µM (active) and the GI50 (SNB-75) was 1.38 µM (inactive). The GI50 (SNB-78) was 0.303 µM (active), the GI50 (SW-620) was 0.0284 µM (active) and the GI50 (TK-10) was 0.798 µM (active). For the same compound, the GI50 (U-251) was 0.0248 µM (active), the GI50 (UACC-257) was 0.585 µM (active) and the GI50 (UACC-62) was 0.0579 µM (active). The GI50 (UO-31) was 0.0695 µM (active) and the GI50 (XF498) was 0.0966 µM (active).
